The values that follow are results of earlier work, collected in US20010046961A1, “Method for the treatment of solid tumors by albumin microparticles incorporating paclitaxel” (ACS DOBFAR S.p.A., priority 2000, published 2001).

For the data set, the system named is head and neck cancer. The conditions noted are these: traditional treatment with Paclitaxel, for example head and neck cancer.

For the compound `CC(=O)O[C@H]1C(=O)[C@@]2(C)[C@H]([C@H](OC(=O)c3ccccc3)[C@]3(O)C[C@H](OC(=O)[C@H](O)[C@@H](NC(=O)c4ccccc4)c4ccccc4)C(C)=C1C3(C)C)[C@]1(OC(C)=O)CO[C@@H]1C[C@@H]2O` [Paclitaxel], the treatment response percentage was 40%.
